Experimental data reported in patent US20260125382A1, “COMPOUNDS FOR INHIBITING OR DEGRADING CDK2 AND/OR CDK9 AND MEDICINAL USE THEREOF” (KOREA RESEARCH INSTITUTE OF CHEMICAL TECHNOLOGY, priority 2022, published 2026).

Experiments:
CDK2 = molecular target: T1, CDK2 (Homo sapiens, UniProt P24941); assay: CDK protein degradation activity (Western blotting), CDK2; type: cell-based; conditions: MDA-MB-231 cells, 16 hours, Western blot
T1 construct: endogenous in cells; host or cells: MDA-MB-231
How it was run: (§1)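 Degradation is judged from CDK2 and CDK9 band intensity relative to tubulin and DMSO-treated cells, after 16 h exposure of MDA-MB-231 cells to three compound concentrations (100 nM, 1 μM, 10 μM).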

CDK9 = molecular target: T2, CDK9 (Homo sapiens, UniProt P50750); assay: CDK protein degradation activity (Western blotting), CDK9; type: cell-based; conditions: MDA-MB-231 cells, 16 hours, Western blot
T2 construct: endogenous in cells; host or cells: MDA-MB-231
T2 sequence (P50750 whole entry): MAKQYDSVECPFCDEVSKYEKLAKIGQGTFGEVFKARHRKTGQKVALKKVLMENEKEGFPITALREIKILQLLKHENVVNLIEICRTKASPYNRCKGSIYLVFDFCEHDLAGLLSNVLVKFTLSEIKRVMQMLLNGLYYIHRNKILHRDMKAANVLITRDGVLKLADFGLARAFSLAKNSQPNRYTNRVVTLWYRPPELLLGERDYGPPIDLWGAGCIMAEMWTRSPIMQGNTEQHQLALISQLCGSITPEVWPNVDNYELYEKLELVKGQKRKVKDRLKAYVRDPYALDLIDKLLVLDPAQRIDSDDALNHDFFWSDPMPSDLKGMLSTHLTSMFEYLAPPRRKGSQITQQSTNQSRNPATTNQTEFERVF
How it was run: as §1

Structure (SMILES) | Enzyme degradation CDK2 (% remaining) @ 0.1 μM (CDK2) | Enzyme degradation CDK2 (% remaining) @ 1 μM (CDK2) | Enzyme degradation CDK2 (% remaining) @ 10 μM (CDK2) | Enzyme degradation CDK9 (% remaining) @ 0.1 μM (CDK9) | Enzyme degradation CDK9 (% remaining) @ 1 μM (CDK9) | Enzyme degradation CDK9 (% remaining) @ 10 μM (CDK9)
Cc1cccc(C(=O)N[C@H]2C[C@@H](n3cnc4c(NCc5cccc(N6CCN(C(=O)CNc7ccc8c(c7)C(=O)N([C@H]7CCC(=O)NC7=O)C8=O)CC6)c5)ncnc43)C2)n1 [Compound 131, N-((1s,3s)-3-(6-((3-(4-((2-(2,6-dioxopiperidin-3-yl)-1,3-dioxoisoindolin-5-yl)glycyl)piperazin-1-yl)benzyl)amino)-9H-purin-9-yl)cyclobutyl)-6-methylpicolinamide] | 80% | 100% | 100% | 60/60/60% | 60/60/60% | 60/60/60%
Cc1cccc(C(=O)NC2CC(n3cnc4c(NC5CCN(CCOC6CCN(c7cccc8c7C(=O)N([C@H]7CCC(=O)NC7=O)C8=O)CC6)CC5)ncnc43)C2)n1 (stereo partly drawn) [Compound 48, N-((1s,3s)-3-(6-((1-(2-((1-(2-(2,6-dioxopiperidin-3-yl)-1,3-dioxoisoindolin-4-yl)piperidin-4-yl)oxy)ethyl)piperidin-4-yl)amino)-9H-purin-9-yl)cyclobutyl)-6-methylpicolinamide] | 100/100/100% | 100/100/100% | 100/100/100% | 50% | 20% | 20%
O=C1CCC(c2ccc(OCC(=O)N3CC(CN4CCC5(CC4)CC(N4CCN(c6ccc(Nc7ncnc8c7ncn8[C@H]7C[C@@H](NC(=O)Cc8ccccc8)C7)cc6)CC4)C5)C3)cc2)C(=O)N1 (stereo partly drawn) [Compound 275, N-((1s,3s)-3-(6-((4-(4-(7-((1-(2-(4-(2,6-dioxopiperidin-3-yl)phenoxy)acetyl)azetidin-3-yl)methyl)-7-azaspiro[3.5]nonan-2-yl)piperazin-1-yl)phenyl)amino)-9H-purin-9-yl)cyclobutyl)-2-phenylacetamide] | 80% | 60% | 60% | 70% | 30% | 0%
O=C1CC[C@H](n2nnc3ccc(N4CCC(CCN5CCN(c6ccc(Nc7ncnc8c7ncn8C7CC(NC(=O)Cc8ccccc8)C7)cc6)CC5)CC4)cc3c2=O)C(=O)N1 (stereo partly drawn) [Compound 324, N-((1s,3s)-3-(6-((4-(4-(2-(1-(3-(2,6-dioxopiperidin-3-yl)-4-oxo-3,4-dihydrobenzo[d][1,2,3]triazin-6-yl)piperidin-4-yl)ethyl)piperazin-1-yl)phenyl)amino)-9H-purin-9-yl)cyclobutyl)-2-phenylacetamide] | 70% | 80% | 10% | 0/0/0% | 0/0/0% | 0/0/0%
O=C1CC[C@H](N2C(=O)c3cccc(N4CC(CN5CCC6(CC5)CC(N5CCN(c7ccc(Nc8ncnc9c8ncn9[C@H]8C[C@@H](NC(=O)Cc9ccccc9)C8)cc7)CC5)C6)C4)c3C2=O)C(=O)N1 [Compound 279, N-((1s,3s)-3-(6-((4-(4-(7-((1-(2-(2,6-dioxopiperidin-3-yl)-1,3-dioxoisoindolin-4-yl)azetidin-3-yl)methyl)-7-azaspiro[3.5]nonan-2-yl)piperazin-1-yl)phenyl)amino)-9H-purin-9-yl)cyclobutyl)-2-phenylacetamide] | 50% | 40% | 40% | 40% | 10% | 10%
Cc1cccc(C(=O)N[C@H]2C[C@@H](n3cnc4c(Nc5ccc(N6CCN(C7CC8(CCN(C(=O)C9CN(c%10ccc%11c(c%10)C(=O)N(C%10CCC(=O)NC%10=O)C%11=O)C9)CC8)C7)CC6)cc5)ncnc43)C2)n1 (stereo partly drawn) [Compound 387, N-((1s,3s)-3-(6-((4-(4-(7-(1-(2-(2,6-dioxopiperidin-3-yl)-1,3-dioxoisoindolin-5-yl)azetidin-3-carbonyl)-7-azaspiro[3.5]nonan-2-yl)piperazin-1-yl)phenyl)amino)-9H-purin-9-yl)cyclobutyl)-6-methylpicolinamide] | 50% | 40% | 40% | 20% | 0% | 0%
O=C1CC[C@H](N2C(=O)c3ccc(NCC(=O)N4CCC5(CC4)CC(N4CCN(c6ccc(Nc7ncnc8c7ncn8C7CC(NC(=O)c8c(Cl)cccc8Cl)C7)cc6)CC4)C5)cc3C2=O)C(=O)N1 (stereo partly drawn) [Compound 318, 2,6-dichloro-N-((1s,3s)-3-(6-((4-(4-(7-((2-(2,6-dioxopiperidin-3-yl)-1,3-dioxoisoindolin-5-yl)glycyl)-7-azaspiro[3.5]nonan-2-yl)piperazin-1-yl)phenyl)amino)-9H-purin-9-yl)cyclobutyl)benzamide] | 20% | 20% | 40% | 0/0/0% | 0/0/0% | 0/0/0%
O=C1CCC(N2C(=O)c3cccc(N4CCC(OCCN5CCN(c6ccc(Nc7ncnc8c7ncn8[C@H]7C[C@@H](NC(=O)Cc8ccccc8)C7)cc6)CC5)CC4)c3C2=O)C(=O)N1 (stereo partly drawn) [Compound 260, N-((1s,3s)-3-(6-((4-(4-(2-((1-(2-(2,6-dioxopiperidin-3-yl)-1,3-dioxoisoindolin-4-yl)piperidin-4-yl)oxy)ethyl)piperazin-1-yl)phenyl)amino)-9H-purin-9-yl)cyclobutyl)-2-phenylacetamide] | 20/20/20% | 20/20/20% | 20/20/20% | 60/60/60% | 60/60/60% | 60/60/60%
Cc1cccc(C(=O)N[C@H]2C[C@@H](n3cnc4c(NC5CCN(CC6CCN(C(=O)CNc7ccc8c(c7)C(=O)N([C@H]7CCC(=O)NC7=O)C8=O)CC6)CC5)ncnc43)C2)n1 [Compound 25, N-((1s,3s)-3-(6-((1-((1-((2-(2,6-dioxopiperidin-3-yl)-1,3-dioxoisoindolin-5-yl)glycyl)piperidin-4-yl)methyl)piperidin-4-yl)amino)-9H-purin-9-yl)cyclobutyl)-6-methylpicolinamide] | 20% | 20% | 30% | 0/0/0% | 0/0/0% | 0/0/0%
O=C1CC[C@H](n2nnc3ccc(N4CCC(CN5CCN(c6ccc(Nc7ncnc8c7ncn8[C@H]7C[C@@H](NC(=O)c8cccc(C(F)(F)F)n8)C7)cc6)CC5)CC4)cc3c2=O)C(=O)N1 [Compound 424, N-((1s,3s)-3-(6-((4-(4-((1-(3-(2,6-dioxopiperidin-3-yl)-4-oxo-3,4-dihydrobenzo[d][1,2,3]triazin-6-yl)piperidin-4-yl)methyl)piperazin-1-yl)phenyl)amino)-9H-purin-9-yl)cyclobutyl)-6-(trifluoromethyl)picolinamide] | 10/10/10% | 10/10/10% | 10/10/10% | 0/0/0% | 0/0/0% | 0/0/0%
Cc1cccc(C(=O)NC2CC(n3cnc4c(Nc5ccc(N6CCN(C7CC8(CCN(c9ccc%10c(c9)C(=O)N([C@H]9CCC(=O)NC9=O)C%10=O)CC8)C7)CC6)cc5)ncnc43)C2)n1 (stereo partly drawn) [Compound 384, N-((1s,3s)-3-(6-((4-(4-(7-(2-(2,6-dioxopiperidin-3-yl)-1,3-dioxoisoindolin-5-yl)-7-azaspiro[3.5]nonan-2-yl)piperazin-1-yl)phenyl)amino)-9H-purin-9-yl)cyclobutyl)-6-methylpicolinamide] | 20/20/20% | 20/20/20% | 20/20/20% | 0/0/0% | 0/0/0% | 0/0/0%
Cc1cccc(C(=O)N[C@H]2C[C@@H](n3cnc4c(NCc5cccc(N6CCN(C(=O)CNc7cccc8c7C(=O)N(C7CCC(=O)NC7=O)C8=O)CC6)c5)ncnc43)C2)n1 (stereo partly drawn) [Compound 130, N-((1s,3s)-3-(6-((3-(4-((2-(2,6-dioxopiperidin-3-yl)-1,3-dioxoisoindolin-4-yl)glycyl)piperazin-1-yl)benzyl)amino)-9H-purin-9-yl)cyclobutyl)-6-methylpicolinamide] | 60% | 40% | 10% | 100% | 40% | 20%
